Source: US20100260791A1, “CHLAMYDIA ANTIGENS” (President and Fellows of Harvard, priority 2007, published 2010)

Experiments:
[1] = test system: C. trachomatis-specific CD8^+ murine T cells; assay: IFN-γ ELISA of C. trachomatis-specific CD8+ murine T cells stimulated with peptide-pulsed macrophages; type: cell-based, mouse; conditions: CT242 and CT812 peptides (CD8+ Ag); for IFN-γ Produced −fold: fold-increase of IFN-γ production compared to untreated T-lymphocytes (footnote); for IFN-γ Produced ng: mean (± standard deviation) of duplicate samples
Excerpt: (§1) A library of cells or viruses containing polynucleotides encoding C. trachomatis polypeptides, polypeptide fragments, or fusion proteins may be screened to determine which of the polypeptides, polypeptide fragments, or fusion proteins encoded by the polynucleotides are immunogenic. This may be accomplished by contacting each member of the library with a second cell (e.g., a macrophage or antigen presenting cell) capable of endocytosing the cell of the C. trachomatis library, and displaying portions of the expressed polypeptide of the library on the surface of the second cell (see, e.g., U.S. Pat. No. 6,008,415). The second cell is then contacted with a C. trachomatis-specific T cell (e.g., a C. trachomatis-specific CD4^+ or CD8^+ T cell) from an organism previously infected with C. trachomatis. The second cell may also be fixed (e.g., using paraformaldehyde) prior to contacting with a C. trachomatis-specific T cell. A C. trachomatis-specific T cell capable of binding a presented portion of the C. trachomatis protein, will result in secretion of cytokines. Cytokine secretion (e.g., secretion of IFN-γ, IL-2, or TNF) may be assayed for as known in the art, for example, using an ELISA assay.
(§2) In particular, murine H2^b bone marrow-derived macrophages (BMMs) were seeded at a density of 1×10^5 cells/well in 96-well plates. Fourteen to sixteen hours later, an aliquot of a frozen C. trachomatis library was thawed. The media was aspirated from the BMMs and replaced with a library aliquot and 60 μL of fresh RP-10 media. After 1 hour at 37° C., the BMMs were washed with PBS, 100 μL of RP-10 media added, and the cells incubated an additional hour at 37° C. The BMMs were then fixed with 1% paraformaldehyde for 15 minutes and washed extensively with PBS. […] T cells (either C. trachomatis-specific CD4^+ or CD8^+ murine T cells; 1×10^5) were added to each well in 200 μL of RP-10 media. Plates were incubated for 18-24 hours at 37° C. and the amount of IFN-γ in the supernatant of each well determined through the use of an IFN-γ ELISA assay (Endogen).
(§3) Another way to identify an antigenic peptide is to pulse the polypeptide, polypeptide fragment, or fusion protein onto macrophages and screen for their ability to activate C. trachomatis-specific CD4^+ or CD8^+ murine T cells (as described above). Peptides used in such assays can be synthesized using methods known in the art. A polypeptide, polypeptide fragment, or fusion protein that is capable of activating the C. trachomatis-specific CD4^+ or CD8^+ murine T cells is deemed immunogenic.
Pools of activated CD8^+ murine T cells for use in the identification of immunogenic C. trachomatis polypeptides, polypeptide fragments, and fusion proteins may be obtained using methods known in the art. Typically, in screening for antigens to pathogenic organisms, CD8^+ T cells are prepared from a mammal previously infected with the pathogenic organism. This preparation contains CD8^+ T cells specific for antigens from the pathogen.
C. trachomatis-specific CD8^+ T cells were harvested from mice as follows. A C57BL/6 mouse was injected intraperitoneally with 10^7 infection-forming units of C. trachomatis. Fourteen days later the mouse was euthanized and the spleen was harvested. The spleen was mashed through a 70 μm screen to create a single cell solution of splenocytes. The CD8^+ T cells were isolated from the splenocytes using anti-CD8 antibodies bound to MACS™ magnetic beads and separation protocols standard in the art (see, for e.g., MACS™ technology available from Miltenyi Biotec Inc., Auburn, Calif.). The isolated CD8^+ cells were added to macrophages of the same haplotype (H2^b), which were infected with C. trachomatis 18 hours prior in a 24-well dish. Irradiated splenocytes from a naïve mouse (C57BL/6) were added as feeder cells in media containing IL-2. The cells were incubated for 10 days during which the C. trachomatis-specific CD8^+ T cells were stimulated by the infected macrophages and replicated. […]

[2] = test system: C. trachomatis-specific CD4^+ murine T cells; assay: IFN-γ ELISA of C. trachomatis-specific CD4+ murine T cells stimulated with peptide-pulsed macrophages; type: cell-based, mouse; conditions: CT144 peptides (CD4+ Ag); for IFN-γ Produced −fold: fold-increase of IFN-γ production compared to untreated T-lymphocytes (footnote); for IFN-γ Produced ng: mean (± standard deviation) of duplicate samples
Excerpt: as §1, §2, §3
Activated CD4^+ murine T cells for use in the identification of immunogenic C. trachomatis polypeptides, polypeptide fragments, and fusion proteins may be obtained using methods known in the art. Splenocytes from mice were isolated 21 days after infection with C. trachomatis serovar L2 and cultured with irradiated (2,000 rad) bone marrow-derived dendritic cells, UV-inactivated C. trachomatis serovar L2, and naïve syngeneic splenocytes in RP-10 (RPMI medium 1640 supplemented with 10% fetal calf serum, L-glutamine, HEPES, 50 μM 2-β-mercaptoethanol, 50 units/ml penicillin, and 50 μg/ml streptomycin) with a-methyl mannoside and 5% supernatant from Con A-stimulated rat spleen cells. CD8^+ T cells were depleted from the culture by using Dynabeads Mouse CD8 (Invitrogen, Carlsbad, Calif.). The CD4^+ T cells were restimulated every 7 days with C. trachomatis-pulsed bone marrow-derived dendritic cells. Once a C. trachomatis-specific CD4^+ cell line was established, a CD4^+ T cell clone was isolated by limiting dilution.

Sequence | IFN-γ Produced −fold [1] | IFN-γ Produced ng [1] | IFN-γ Produced −fold [2] | IFN-γ Produced ng [2]
QSVNELVYV [CT812 peptide tested with CD8+ T cells] | 0.3 fold | 0.01 (±0.01) ng |  | 
FQEKDADTL [CT812 peptide tested with CD8+ T cells] | 2.0 fold | 0.09 (±0.03) ng |  | 
SNLKRMQKI [CT242 peptide tested with CD8+ T cells] | 10 fold | 0.40 (±0.07) ng |  | 
NVTQDLTSSTAKLECTQDLI [CT144 peptide tested with CD4+ T cells] |  |  | 35 fold | 1.4 (±0.3) ng
GQSVNELVY [CT812 peptide tested with CD8+ T cells] | 0.8 fold | 0.03 (±0.02) ng |  | 
AQGKLIVTNPKSDISFGGRV (listed as Chlamydia trachomatis) [amino acids 67-86 of the CT144 polypeptide] |  |  | 925 fold | 37.0 (±1.8) ng
LNQSNLKRM (listed as Chlamydia trachomatis) [amino acids 112-120 of the CT242 polypeptide] | 160 fold | 6.5 (±2.4) ng |  | 
YQILNQSNL (listed as Chlamydia trachomatis) [amino acids 109-117 of the CT242 polypeptide] | >5,750 fold | >230 ng |  | 
FTSSNLDSP [CT812 peptide tested with CD8+ T cells] | 1.0 fold | 0.04 (±0.01) ng |  | 
AALYSTEDL [CT812 peptide tested with CD8+ T cells] | 0.5 fold | 0.02 (±0.02) ng |  | 
SQAEGQYRL [CT812 peptide tested with CD8+ T cells] | 0.8 fold | 0.03 (±0.3) ng |  | 
FSVTNPVVF (listed as Chlamydia trachomatis) [amino acids 103-111 of the CT812 polypeptide] | 65 fold | 2.6 (±0.3) ng |  | 
AKLECTQDLIAQGKLIVTNP [CT144 peptide tested with CD4+ T cells] |  |  | 35 fold | 1.4 (±0.3) ng
LEFASCSSL [CT812 peptide tested with CD8+ T cells] | 1.5 fold | 0.06 (±0.01) ng |  | 
KSDISFGGRVNLADNTVNYS (listed as Chlamydia trachomatis) [amino acids 77-96 of the CT144 polypeptide] |  |  | 40 fold | 1.6 (±0.4) ng
